The test system of assay [1] is SKOV3 cells (human ovarian cancer cell line). In words: Inhibition of cell proliferation, xCelligence cell index. Type of assay: cell-based. The settings on record: SK-OV-3, 72 hr post compound treatment, read-out: calculated IC50. From the text:
(§1) The biological activity of compounds disclosed herein was monitored and profiled using the Real-Time Cell Electronic Sensing (RT-CES®) system from ACEA Biosciences, Inc. The RT-CES system utilizes cell-substrate impedance technology to monitor cellular behavior inside tissue culture wells in a microtiter plate format. The technology features in the integration of molecular and cell biology with microelectronics and is based on the electronic detection of biological assay process. […]
(§2) For measurement of cell-substrate or cell-electrode impedance using RT-CES technology, microelectrodes having appropriate geometries are fabricated onto the bottom surfaces of microtiter plate or similar device, facing into the wells. […] When there are changes to the biological status of the cells analogue electronic readout signals are measured automatically and in real time, and are converted to digital signals for processing and for analysis. In a RT-CES system, a cell index (arbitrary representation of change in impedance) is automatically derived and provided based on measured electrode impedance values. […]
(§3) To quantify cell status based on the measured cell-electrode impedance, a parameter termed Cell Index is derived. Cell Index is a quantitative measure of the status of the cells in an electrode-containing well. […]

Assay [2] has as its system H2347 cells (human non-small cell lung cancer cell line). The assay is described as above. The format is cell-based. The following applies: NCI-H2347, 72 hr post compound treatment, read-out: calculated IC50.
Text: as §1, §2, §3

The test system of assay [3] is H460 human non-small cell lung cancer xenograft. In words: In vivo antitumor efficacy, H460 xenograft. Also on record: species or system BALB/c immunodeficient nude mice. The following applies: for Tumor inhibition rate %: by tumor weight. From the text:
To evaluate the in vivo anticancer efficacy of COMPOUND O, H460 human non-small cell lung Cancer xenograft models in immunodeficient nude mice was used. The cell line and mice were maintained in the Pharmacology Lab of ACEA Bio (Hangzhou) CO., Ltd. The BALB/c immunodeficient nude mice were purchased from Shanghai SLAC Laboratory Animal, certification number: SCXKA (Shanghai) 2007-0005. The mouse weight was between 19±2 g. Only female mice were used in this study. The numbers of animals tested were as follows: 7 for each dose group, 7 for positive control group and 7 for negative control group.
Test Control. For negative control, each mouse was administered orally with the solvent only having the same volume and same concentration as those used in COMPOUND O test, 120 mg/kg once every other day (qod) for 25 days. For positive control, an oral anticancer compound, Etoposide was administered orally at 30 mg/kg qod for 25 days.
Preparation an Administration of Test Compounds. COMPOUND O was dissolved in 25% phospholipid (S75) and 75% polyvinylpyrrolidone (PL-PVP) then further diluted to 8 mg/ml in 0.9% NaCl aqueous solution. Each mouse was administered orally with the compound solution. Different dosages of COMPOUND O (120 mg/kg qod and 160 mg/kg q3d) were used in the study.
Preparation of tumor cells for transplantation and determination of compound efficacy. To prepare the cancer cells for H460 human non-small cell lung cancer xenograft model, the log phase growing cell in the flask were trypsinized and cells were re-suspended in PBS (pH 7.2) at 1.5×10^7 cells/ml. The cell suspension (3×10^6 cells) was subcutaneously injected into the auxiliary region (right-side) of each mouse. After the inoculated cancer cells grew to a tumor of certain size (150 mm^3) in the nude mice, the mice were randomized into different dosing groups and subjected to compound treatment. Between 3-4 weeks after the first dosing, mice were sacrificed and the transplanted tumors were removed from experimental mice. Each removed solid tumor was weighed; the tumor inhibition rate in each dosage group was calculated according to equation (1) in Example 1.
All used materials including animal food, animal cage, supporting materials and apparatus contacted by animals, were high-pressure sterilized. Nude mice were maintained in laminar flow shelves under SPF condition. After tumor transplantation, mouse weight and tumor size in each compound dosage group were dynamically monitored and plotted. The tumor size was determined by measuring the major axis (a) and minor axis (b) of the tumor, and tumor volume was calculated according to the formula (2) in Example 1.

Structures can show the parent of a compound that is named as a salt.

The text below walks through data of patent US20110207751A1, “HETEROCYCLIC COMPOUNDS AND USES AS ANTICANCER AGENTS” (priority 2010, published 2011).

Broadly, the IC50 is the concentration at which inhibition is half-maximal. In the case of `CCc1ccc(Nc2nc(-c3c(C)nc4sccn34)cs2)cc1` [COMPOUND O, 2-(4-ethylphenyl)amino-4-(6-methylimidazo[2,1-b]thiazol-5-yl)-thiazole monohydrobromide], the IC50 in assay [1] was 5.47 nM. Further, the IC50 in assay [2] was 1.76 nM. Besides, in assay [3] (120 mg/kg ig × 11 qod), the “TV inhibition rate % T/C” value was determined as 47.0%, the “Tumor volume (mm^3) End” value amounted to 745.28 ± 245.55 mm^3, the “Tumor volume (mm^3) Start” value is reported as 162.09 ± 53.94 mm^3 and the “Tumor weight (g) x ± SD” value stood at 0.81 ± 0.29 g. Also, in assay [3] (120 mg/kg ig × 11 qod), the “Tumor inhibition rate %” value is on record as 47.1%. Besides, in assay [3] (160 mg/kg ig × 9 q3d), the “TV inhibition rate % T/C” value came to 69.9%, the “Tumor volume (mm^3) End” value is 524.67 ± 141.77 mm^3, the “Tumor volume (mm^3) Start” value is given as 171.44 ± 53.63 mm^3 and the “Tumor weight (g) x ± SD” value worked out at 0.46 ± 0.13 g. In addition, the “Tumor inhibition rate %” value in assay [3] (160 mg/kg ig × 9 q3d) is listed as 31.3%.
`COc1cc([C@@H]2c3cc4c(cc3[C@@H](O[C@@H]3O[C@@H]5CO[C@@H](C)O[C@H]5[C@H](O)[C@H]3O)[C@H]3COC(=O)[C@H]23)OCO4)cc(OC)c1O` [Etoposide, reference compound]: in assay [3] (30 mg/kg ig × 13 qod), the “TV inhibition rate % T/C” value worked out at 50.4%, the “Tumor volume (mm^3) End” value stood at 775.43 ± 302.62 mm^3, the “Tumor volume (mm^3) Start” value was determined as 163.79 ± 57.22 mm^3 and the “Tumor weight (g) x ± SD” value is listed as 0.76 ± 0.29 g. Moreover, the “Tumor inhibition rate %” value in assay [3] (30 mg/kg ig × 13 qod) is reported as 48.4%.
Consider `CC(=O)O[C@H]1C(=O)[C@@]2(C)[C@H]([C@H](OC(=O)c3ccccc3)[C@]3(O)C[C@H](OC(=O)[C@H](O)[C@@H](NC(=O)c4ccccc4)c4ccccc4)C(C)=C1C3(C)C)[C@]1(OC(C)=O)CO[C@@H]1C[C@@H]2O` [paclitaxel], for which the IC50 in assay [1] was 5.34 nM.
On to `CC[C@]1(O)C[C@H]2CN(CCc3c([nH]c4ccccc34)[C@@](C(=O)OC)(c3cc4c(cc3OC)N(C=O)[C@H]3[C@@](O)(C(=O)OC)[C@H](OC(C)=O)[C@]5(CC)C=CCN6CC[C@]43[C@@H]65)C2)C1` [vincristine], for which the IC50 in assay [2] was 5.05 nM.
